Patent publication US8362000B2, “Azetidinyl diamides as monoacylglycerol lipase inhibitors” (Janssen Pharmaceutica NV, priority 2009, dated 2013)
Where two headings read alike, the source gives them in different places.

How the values were obtained:
MGL = biological target: T1, MGL (Rattus norvegicus, UniProt Q8R431); assay: 2-AG accumulation assay in rat brain homogenate; type: biochemical; settings: rat brain homogenate, 2-AG accumulation as percent of vehicle; for 2-AG accumulation, % of vehicle control at 1 µM: compound 1 μM, read-out: Rat Brain 2AG % VehCntrl (%) @ 1 μM; for 2-AG accumulation, % of vehicle control at 10 µM: compound 10 μM, read-out: Rat Brain 2AG % VehCntrl (%) @ 10 μM
T1 construct: one g rat brain was homogenized using a Polytron homogenizer; from tissue; host or cells: rat brain homogenate
T1 sequence (Q8R431 1-303): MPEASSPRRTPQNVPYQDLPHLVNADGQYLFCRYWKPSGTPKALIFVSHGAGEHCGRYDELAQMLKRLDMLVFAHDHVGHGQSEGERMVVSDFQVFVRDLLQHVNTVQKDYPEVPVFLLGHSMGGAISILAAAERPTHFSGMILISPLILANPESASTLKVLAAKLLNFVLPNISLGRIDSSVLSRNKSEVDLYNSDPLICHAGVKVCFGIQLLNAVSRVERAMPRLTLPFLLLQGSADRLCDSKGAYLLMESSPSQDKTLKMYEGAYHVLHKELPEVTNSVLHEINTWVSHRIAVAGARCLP

mutant MGL = biological target: T2, mutant MGL (Homo sapiens, UniProt Q99685, L169S/L176S); assay: MGL ThermoFluor assay - mutant; type: binding
T2 sequence (Q99685 1-303 L169S/L176S): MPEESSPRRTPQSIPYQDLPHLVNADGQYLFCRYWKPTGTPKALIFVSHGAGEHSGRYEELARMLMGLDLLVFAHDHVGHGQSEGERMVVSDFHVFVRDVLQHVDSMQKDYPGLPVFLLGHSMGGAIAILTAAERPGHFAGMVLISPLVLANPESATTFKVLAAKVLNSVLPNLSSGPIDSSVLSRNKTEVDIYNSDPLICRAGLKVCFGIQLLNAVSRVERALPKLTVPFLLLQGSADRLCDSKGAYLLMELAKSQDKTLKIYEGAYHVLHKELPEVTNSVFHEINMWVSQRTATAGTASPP

[1] = ThermoFluor concentration-response, read-out: MGL mutant ThermoFluor Kd
[2] = ThermoFluor thermal stability binding assay, read-out: MGL mutant ThermoFluor Kd

| 2-AG accumulation, % of vehicle control at 1 µM (MGL) [%] | Kd (mutant MGL; [1]) [µM] | Kd (mutant MGL; [2]) [µM] | Kd (mutant MGL; ThermoFluor, compound concentration measured by qNMR, read-out: MGL mutant ThermoFluor qKd (μM) (using qNMR conc.)) [µM] | 2-AG accumulation, % of vehicle control at 10 µM (MGL) [%] | Compound |
| --- | --- | --- | --- | --- | --- |
| 120 | 0.0532 | – | – | – | O=C(c1ccccc1)N1CCN(C2CN(C(=O)c3ccc(Oc4ccc(Cl)c(Cl)c4)cc3)C2)CC1 [Cpd 422, 1-(1-{[4-(3,4-Dichlorophenoxy)phenyl]carbonyl}azetidin-3-yl)-4-(phenylcarbonyl)piperazine] |
| 228 | 0.16 | – | – | – | O=C(c1ccc(SCc2cccnc2)cc1)N1CC(N2CCN(C(=O)c3nccs3)CC2)C1 [Cpd 416] |
| 917 | 0.012 | – | – | – | O=C(c1ccc(COc2cccc(Cl)c2)cc1)N1CC(N2CCN(C(=O)c3nccs3)CC2)C1 [Cpd 453, 1-[1-({4-[(3-Chlorophenoxy)methyl]phenyl}carbonyl)azetidin-3-yl]-4-(1,3-thiazol-2-ylcarbonyl)piperazine] |
| 194 | – | 0.019 | – | – | O=C(c1ccc(OCc2cccc(Br)n2)cc1)N1CC(N2CCN(C(=O)c3nccs3)CC2)C1 [Cpd 983] |
| 198 | – | 0.025 | – | – | O=C(c1ccc(-c2ccccc2)cc1)N1CC(N2CCN(C(=O)c3ccc(Cl)o3)CC2)C1 [Cpd 312, 1-[1-(Biphenyl-4-ylcarbonyl)azetidin-3-yl]-4-[(5-chlorofuran-2-yl)carbonyl]piperazine] |
| 819 | – | – | 0.01 | – | N#Cc1cccc(-n2ccc3cc(C(=O)N4CC(N5CCN(C(=O)c6nccs6)CC5)C4)ccc32)c1 [Cpd 1113] |
| 105 | 0.111 | – | – | – | O=C(c1ccccc1)N1CCN(C2CN(C(=O)c3ccc(-c4ccc(Br)cc4)cc3)C2)CC1 [Cpd 83, 1-{1-[(4′-Bromobiphenyl-4-yl)carbonyl]azetidin-3-yl}-4-(phenylcarbonyl)piperazine] |
| – | 0.197 | – | – | 293 | O=C(c1ccc2oc(-c3ccccc3)nc2c1)N1CC(N2CCN(C(=O)c3cscn3)CC2)C1 [Cpd 1382, 2-Phenyl-5-({3-[4-(1,3-thiazol-4-ylcarbonyl)piperazin-1-yl]azetidin-1-yl}carbonyl)-1,3-benzoxazole] |
| 188 | – | 0.338 | – | – | O=C(c1ccc(OCc2ccncc2)cc1)N1CC(N2CCN(C(=O)c3nccs3)CC2)C1 [Cpd 403, 1-(1-{[4-(Pyridin-4-ylmethoxy)phenyl]carbonyl}azetidin-3-yl)-4-(1,3-thiazol-2-ylcarbonyl)piperazine] |
| 280 | 0.062 | – | – | – | O=C(c1ccccc1)N1CCN(C2CN(C(=O)c3ccc(COc4cccc(Cl)c4)cc3)C2)CC1 [Cpd 548] |
| 163 | 0.0335 | – | – | – | O=C(c1ccccc1)N1CCN(C2CN(C(=O)c3ccc(Sc4cccc(Cl)c4)cc3)C2)CC1 [Cpd 427, 4-(1-{[4-(3-Chloro-phenylsulfanyl)phenyl]carbonyl}azetidin-3-yl)-1-(phenylcarbonyl)-piperazine] |
| – | – | 0.04 | – | 760 | O=C(c1ccccc1)N1CCN(C2CN(C(=O)c3ccc(OCc4ccc(Cl)c(Cl)c4)cc3)C2)CC1 [Cpd 379, 1-[1-({4-[(3,4-dichlorobenzyl)oxy]phenyl}carbonyl)azetidin-3-yl]-4-(phenylcarbonyl)piperazine] |
| – | 0.00111 | – | – | 969 | O=C(c1ccc(-c2cc(Cl)cc(Cl)c2)cc1)N1CC(N2CCN(C(=O)c3nccs3)CC2)C1 [Cpd 164, 1-{1-[(3′,5′-Dichlorobiphenyl-4-yl)carbonyl]azetidin-3-yl}-4-(1,3-thiazol-2-ylcarbonyl)piperazine] |
| 110 | – | 0.025 | – | – | O=C(c1ccccc1)N1CCN(C2CN(C(=O)c3ccc(-c4ccc(Cl)c(C(F)(F)F)c4)cc3Cl)C2)CC1 [Cpd 268, 1-(1-{[3,4′-Dichloro-3′-(trifluoromethyl)biphenyl-4-yl]carbonyl}azetidin-3-yl)-4-(phenylcarbonyl)piperazine] |
| 904 | – | 0.0137 | – | – | O=C(c1cc2c(C(F)(F)F)cccc2s1)N1CC(N2CCN(C(=O)c3nccs3)CC2)C1 [Cpd 327, 1-(1,3-Thiazol-2-ylcarbonyl)-4-(1-{[4-(trifluoromethyl)-1-benzothiophen-2-yl]carbonyl}azetidin-3-yl)piperazine] |
| 123 | 0.097 | – | – | – | COc1cc(C(=O)N2CC(N3CCN(C(=O)c4ccccc4)CC3)C2)ccc1-c1ccccc1 [Cpd 615] |
| 734 | 0.0033 | – | – | – | O=C(c1ccc(Sc2cccc(Cl)c2)cc1)N1CC(N2CCN(C(=O)c3nccs3)CC2)C1 [Cpd 428] |
| – | 0.0333 | – | – | 720 | O=C(c1ccccc1)N1CCN(C2CN(C(=O)c3ccc(SCc4cccc(Cl)c4)cc3)C2)CC1 [Cpd 410, 1-[1-({4-[(3-Chlorobenzyl)sulfanyl]phenyl}carbonyl)azetidi-3-yl]-4-(phenylcarbonyl)piperazine] |
| 313 | – | 0.061 | – | – | Cc1nc(-c2ccc(Cl)cc2)sc1C(=O)N1CC(N2CCN(C(=O)c3cscn3)CC2)C1 [Cpd 1384] |
| 807 | – | 0.005 | – | – | O=C(c1nccs1)N1CCN(C2CN(C(=O)c3sc4cc(F)ccc4c3Cl)C2)CC1 [Cpd 930] |
| 165 | 0.051 | – | – | – | Cc1cc(C(=O)N2CC(N3CCN(C(=O)c4ccccc4)CC3)C2)ccc1-c1ccccc1 [Cpd 613] |
| 125 | – | 0.08 | – | – | O=C(c1cc[nH]c1)N1CCN(C2CN(C(=O)c3ccc(-c4ccccc4)cc3)C2)CC1 [Cpd 311, 1-[1-(Biphenyl-4-ylcarbonyl)azetidin-3-yl]-4-(1H-pyrrol-3-ylcarbonyl)piperazine] |
| 130 | – | 0.0125 | – | – | O=C(c1ccccc1)N1CCN(C2CN(C(=O)c3ccc(-c4ccc(F)c(Cl)c4)cc3Cl)C2)CC1 [Cpd 267, 1-{1-[(3,3′-Dichloro-4′-fluorobiphenyl-4-yl)carbonyl]azetidin-3-yl}-4-(phenylcarbonyl)piperazine] |
| 169 | 0.029 | – | – | – | Cc1cc(C(=O)N2CC(N3CCN(C(=O)c4cscn4)CC3)C2)ccc1-c1ccccc1 [Cpd 1406] |
| 238 | – | 0.01 | – | – | O=C(c1ccccc1)N1CCN(C2CN(C(=O)c3sc4cc(-c5ccccc5)ccc4c3Cl)C2)CC1 [Cpd 344] |
| 515 | 0.069 | – | – | – | O=C(c1ccc(CNc2cccc(Cl)c2)cc1)N1CC(N2CCN(C(=O)c3cscn3)CC2)C1 [Cpd 969] |
| 158 | – | 0.038 | – | – | O=C(c1ccccc1)N1CCN(C2CN(C(=O)c3sc4cc(F)ccc4c3Cl)C2)CC1 [Cpd 543] |
| 701 | – | 0.0853 | – | – | O=C(c1ccc2c(c1)CCCN2S(=O)(=O)c1cccc(C(F)(F)F)c1)N1CC(N2CCN(C(=O)c3nccs3)CC2)C1 [Cpd 367, 6-({3-[4-(1,3-Thiazol-2-ylcarbonyl)piperazin-1-yl]azetidin-1-yl}carbonyl)-1-{[3-(trifluoromethyl)phenyl]sulfonyl}-1,2,3,4-tetrahydroquinoline] |
| – | – | 0.00167 | – | 762 | O=C(c1ccc(OCc2cccc(Cl)c2)c(Cl)c1)N1CC(N2CCN(C(=O)c3nccs3)CC2)C1 [Cpd 401, 1-[1-({3-Chloro-4-[(3-chlorobenzyl)oxy]phenyl}carbon-yl)azetidin-3-yl]-4-(1,3-thiazol-2-ylcarbonyl)piperazine] |
